# Laboratory results as given in patent publication US8563714B2, “Bridged spiro [2.4] heptane derivatives as ALX receptor and/or FPRL2 agonists” (Actelion Pharmaceuticals Ltd., priority 2009, dated 2013).
# Key:
# human FPRL2 = target: T1, human FPRL2 (Homo sapiens, UniProt P25089); experiment: Intracellular calcium measurements (FLIPR), agonistic activity in HEK293-hFPRL2-Gα16 cells; assay type: cell-based; conditions: Fluo-4 calcium FLIPR, normalized to GLY14-Humanin 100 nM
# T1 construct: expressed in transfected cells; host or cells: HEK293 (HEK293-hFPRL2-Gα16)
# T1 sequence (P25089 1-353): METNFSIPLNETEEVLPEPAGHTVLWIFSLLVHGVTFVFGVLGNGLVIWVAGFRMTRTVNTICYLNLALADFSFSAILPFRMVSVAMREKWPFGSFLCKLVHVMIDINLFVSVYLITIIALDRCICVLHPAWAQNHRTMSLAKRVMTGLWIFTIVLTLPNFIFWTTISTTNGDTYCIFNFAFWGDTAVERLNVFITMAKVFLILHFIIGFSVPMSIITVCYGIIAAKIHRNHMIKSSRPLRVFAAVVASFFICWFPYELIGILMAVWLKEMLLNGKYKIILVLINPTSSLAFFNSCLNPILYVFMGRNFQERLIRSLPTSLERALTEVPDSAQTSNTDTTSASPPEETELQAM
# Protocol: (§1) The ALX receptor and FPRL2 agonistic activities of the compounds of formula (I) are determined in accordance with the following experimental method.
# (§2) Intracellular Calcium Measurements:
# Cells expressing recombinant human FPRL2 and the G-protein Gα16 (HEK293-hFPRL2-Gα16) were grown to 80% confluency in Growing Medium (GM). […] Stock solutions of test compounds were made up at a concentration of 10 mM in DMSO, and serially diluted in AB to concentrations required for activation dose response curves. Gly14-Humanin (Humanin peptide with replacement of Serine by Glycine at position 14, Phoenix Peptides) was used as a reference agonist. FLIPR384 or FLIPR Tetra instruments (Molecular Devices) were operated according to the manufacturer's standard instructions, adding 4 μl of test compound dissolved at 10 mM in DMSO and diluted prior to the experiment in assay buffer to obtain the desired final concentration. Changes in fluorescence were monitored before and after the addition of test compounds at lex=488 nm and lem=540 nm. Emission peak values above base level after compounds addition were exported after base line subtraction. Values were normalized to high-level control (GLY14-Humanin compound, 100 nM final concentration) after subtraction of the base line value (AB addition).
# human ALX receptor = target: T2, human ALX receptor (Homo sapiens, UniProt P25090); experiment: Intracellular calcium measurements (FLIPR), agonistic activity in HEK293-hALXR-Gα16 cells; assay type: cell-based; conditions: Fluo-4 calcium FLIPR, normalized to WKYMVm 10 nM
# T2 construct: expressed in transfected cells; host or cells: HEK293 (HEK293-hALXR-Gα16)
# T2 sequence (P25090 1-351): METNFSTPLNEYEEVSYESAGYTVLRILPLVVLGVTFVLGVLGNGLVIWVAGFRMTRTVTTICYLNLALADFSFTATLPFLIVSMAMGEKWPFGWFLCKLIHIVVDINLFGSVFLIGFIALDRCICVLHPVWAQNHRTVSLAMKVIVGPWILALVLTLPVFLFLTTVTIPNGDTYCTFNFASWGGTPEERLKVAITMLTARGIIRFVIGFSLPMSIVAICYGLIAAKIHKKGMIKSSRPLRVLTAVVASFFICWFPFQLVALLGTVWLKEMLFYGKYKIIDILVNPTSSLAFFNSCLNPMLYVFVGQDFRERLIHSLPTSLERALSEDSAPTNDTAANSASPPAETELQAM
# Protocol: as §1, §2
# Cells expressing recombinant human ALX receptor and the G-protein Gα16 (HEK293-hALXR-Gα16) were grown to 80% confluency in Growing Medium (GM). Cells were detached from culture dishes with a cell dissociation buffer (Invitrogen, 13151-014), and collected by centrifugation at 1,000 rpm at rt for 5 min in Assay Buffer (AB) (equal parts of Hank's BSS (Gibco, 14065-049) and DMEM without Phenol Red (Gibco, 11880-028)). After 60 min incubation at 37° C. under 5% CO2 in AB supplemented with 1 μM Fluo-4 (AM) (Invitrogen, F14202), and 20 mM HEPES (Gibco, 15630-056), the cells were washed and resuspended in AB. They were then seeded onto 384-well FLIPR assay plates (Greiner, 781091) at 50′000 cells in 70 μl per well and sedimented by centrifugation at 1,000 rpm for 1 min. Stock solutions of test compounds were made up at a concentration of 10 mM in DMSO, and serially diluted in AB to concentrations required for activation dose response curves. WKYMVm (Phoenix Peptides) was used as a reference agonist. FLIPR384 or FLIPR Tetra instruments (Molecular Devices) were operated according to the manufacturer's standard instructions, adding 4 μl of test compound dissolved at 10 mM in DMSO and diluted prior to the experiment in assay buffer to obtain the desired final concentration. Changes in fluorescence were monitored before and after the addition of test compounds at lex=488 nm and lem=540 nm. Emission peak values above base level after compounds addition were exported after base line subtraction. Values were normalized to high-level control (WKYMVm compound, 10 nM final concentration) after subtraction of the base line value (AB addition).
Structure (SMILES),EC50 (human FPRL2),EC50 (human ALX receptor)
"CCn1nc(C)cc1CCNC(=O)[C@H]1[C@H](C(=O)Nc2ccc(Br)cc2)[C@@H]2C=C[C@H]1C21CC1 (racemic) [Example 76, (5R*)—N^5-(4-Bromophenyl)-(6R*)—N^6-(2-(1-ethyl-3-methyl-1H-pyrazol-5-yl)-ethyl)-(4S*,7R*)-[4,7-ethenylene-spiro[2.4]heptane]-5,6-dicarboxamide]",2430 nM,77 nM
"Cc1ccncc1C(=O)NC[C@H]1[C@H](C(=O)Nc2ccc(Br)cc2)[C@@H]2C=C[C@H]1C21CC1 (racemic) [Example 171, (5R*)—N^5-(4-Bromo-phenyl)-(6R*)-6-{[(4-methyl-pyridine-3-carbonyl)-amino]-methyl}-(4S*,7R*)-[4,7-ethenylene-spiro[2.4]heptane]-5-carboxamide]",3220 nM,118 nM
"O=C(NC1CNC1)[C@H]1[C@H](C(=O)Nc2ncc(Br)s2)[C@@H]2CC[C@H]1C21CC1 [Example 419, (5R)—N^5-(5-Bromothiazol-2-yl)-(6R)—N^6-(azetidin-3-yl)-(4S,7R)-[4,7-ethylene-spiro[2.4]heptane]-5,6-dicarboxamide]",2290 nM,57 nM
"NC(=O)C(Cc1ccccc1)NC(=O)C1C(C(=O)Nc2ccc(Br)cc2)C2C=CC1C21CC1 (mixture of isomers) [Example 95, (5R*)—N^5-(4-Bromophenyl)-(6R*)—N^6-[(1S)-1-carbamoyl-2-phenyl-ethyl]-(4S*,7R*)-[4,7-ethenylene-spiro[2.4]heptane]-5,6-dicarboxamide]",1850 nM,223 nM
"COCCN(CCOC)C(=O)[C@H]1[C@H](C(=O)Nc2ccc(Br)cc2)[C@@H]2C=C[C@H]1C21CC1 [Example 63, (5R)—N^5-(4-Bromophenyl)-(6R)—N^6,N^6-bis-(2-methoxy-ethyl)-(4S,7R)-[4,7-ethenylene-spiro[2.4]heptane]-5,6-dicarboxamide]",3950 nM,24 nM
"O=C(NC1CCCCC1)[C@H]1[C@H](C(=O)Nc2ccc(Br)cc2)[C@@H]2C=C[C@H]1C21CC1 (racemic) [Example 93, (5R*)—N^5-(4-Bromophenyl)-(6R*)—N^6-(cyclohexyl)-(4S*,7R*)-[4,7-ethenylene-spiro[2.4]heptane]-5,6-dicarboxamide]",> 25000 nM,216 nM
"O=C(NCCF)[C@H]1[C@H](C(=O)Nc2ncc(Br)s2)[C@@H]2C=C[C@H]1C21CC1 (racemic) [Example 259, (5R*)—N^5-(5-Bromo-thiazol-2-yl)-(6R*)—N^6-(2-fluoro-ethyl)-(4S*,7R*)-[4,7-ethenylene-spiro[2.4]heptane]-5,6-dicarboxamide]",> 25000 nM,354 nM
"NCc1ccc(CNC(=O)[C@H]2[C@H](C(=O)Nc3ccc(Br)cc3)[C@@H]3C=C[C@H]2C32CC2)cc1 (racemic) [Example 38, (5R*)—N^5-(4-Bromophenyl)-(6R*)—N^6-[(4-aminomethyl-phenyl)-methyl]-(4S*,7R*)-[4,7-ethenylene-spiro[2.4]heptane]-5,6-dicarboxamide]",1550 nM,7.5 nM

# Compounds with a lower EC50 (human FPRL2), results first:
EC50 (human FPRL2),EC50 (human ALX receptor),Structure (SMILES)
1210 nM,7.3 nM,"O=C(NCC1CCNCC1)[C@H]1[C@H](C(=O)Nc2ncc(Br)s2)[C@@H]2CC[C@H]1C21CC1 [Example 337, (5R)—N^5-(5-Bromo-thiazol-2-yl)-(6R)—N^6-(piperidin-4-yl-methyl)-(4S,7R)-[4,7-ethylene-spiro[2.4]heptane]-5,6-dicarboxamide]"
623 nM,> 25000 nM,"CN(C)CCNC(=O)[C@H]1[C@H](C(=O)NCCc2ccc(Cl)cc2)[C@@H]2C=C[C@H]1C21CC1 [Example 388, (5R)—N^5-(2-(4-Chlorophenyl)ethyl)-(6R)—N^6-(2-dimethylamino-ethyl)-(4S,7R)-[4,7-ethenylene-spiro[2.4]heptane]-5,6-dicarboxamide]"
571 nM,0.16 nM,"NCCCCCNC(=O)C1C(C(=O)Nc2ccc(Br)cc2)C2C=CC1C21CC1 (stereo not drawn) [Example 1, (5R*)—N^5-(4-Bromophenyl)-(6R*)—N^6-(5-amino-pentyl)-(4S*,7R*)-[4,7-ethenylene-spiro[2.4]heptane]-5,6-dicarboxamide]"
462 nM,92 nM,"CC(=O)c1ncc(CNC(=O)[C@H]2[C@H](C(=O)NCCCCN3CCCC3)[C@H]3C=C[C@@H]2C32CC2)o1 (racemic) [Example 198, (5R*)—N^5-(2-Acetyl-oxazol-5-yl-methyl)-(6R*)—N^6-(4-pyrrolidin-1-yl-butyl)-(4S*,7R*)-[4,7-ethenylene-spiro[2.4]heptane]-5,6-dicarboxamide]"
443 nM,9050 nM,"COc1ccc(CNC(=O)[C@H]2[C@H](C(=O)NCCCCN3CCCC3)[C@H]3C=C[C@@H]2C32CC2)cc1OC (racemic) [Example 375, (5R*)—N^5-(3,4-Dimethoxyphenyl-methyl)-(6R*)—N^6-(4-pyrrolidino-butyl)-(4S*,7R*)-[4,7-ethenylene-spiro[2.4]heptane]-5,6-dicarboxamide]"
363 nM,17 nM,"O=C(NCCCCN1CCCC1)[C@H]1[C@H](C(=O)Nc2ncc(Br)s2)[C@@H]2C=C[C@H]1C21CC1 (racemic) [Example 120, (5R*)—N^5-(5-Bromo-thiazol-2-yl)-(6R*)—N^6-(4-pyrrolidin-1-yl-butyl)-(4S*,7R*)-[4,7-ethenylene-spiro[2.4]heptane]-5,6-dicarboxamide]"
348 nM,6720 nM,"Cc1csc(NC(=O)[C@H]2[C@H](C(=O)NCCCCN3CCCC3)[C@H]3C=C[C@@H]2C32CC2)n1 (racemic) [Example 256, (5R*)—N^5-(4-Methyl-thiazol-2-yl)-(6R*)—N^6-(4-pyrrolidin-1-yl-butyl)-(4S*,7R*)-[4,7-ethenylene-spiro[2.4]heptane]-5,6-dicarboxamide]"
334 nM,10300 nM,"COc1ccc(CNC(=O)[C@H]2[C@H](C(=O)NCCCCN3CCCC3)[C@H]3C=C[C@@H]2C32CC2)c(OC)c1 (racemic) [Example 376, (5R*)—N^5-(2,4-Dimethoxyphenyl-methyl)-(6R*)—N^6-(4-pyrrolidino-butyl)-(4S*,7R*)-[4,7-ethenylene-spiro[2.4]heptane]-5,6-dicarboxamide]"
62 nM,1.3 nM,"O=C(NCCCCN1CCCC1)[C@H]1[C@H](C(=O)Nc2ccc(Br)nc2)[C@@H]2CC[C@H]1C21CC1 [Example 279, (5R)—N^5-(2-Bromopyrid-5-yl)-(6R)—N^6-(4-pyrrolidino-butyl)-(4S,7R)-[4,7-ethylene-spiro[2.4]heptane]-5,6-dicarboxamide]"
16 nM,1190 nM,"O=C(NCCCCN1CCCC1)[C@H]1[C@H](C(=O)Nc2cc(F)c(Br)c(F)c2)[C@@H]2C=C[C@H]1C21CC1 [Example 393, (5R)—N^5-(4-Bromo-3,5-difluorophenyl)-(6R)—N^6-(4-pyrrolidino-butyl)-(4S,7R)-[4,7-ethenylene-spiro[2.4]heptane]-5,6-dicarboxamide]"
